From patent US9388140B2, “Substituted benzimidazoles” (priority 2011, dated 2016)

Target: human kinase Mps-1 (Homo sapiens (Human), UniProt P33981)
Test: Mps-1 kinase assay (TR-FRET)
Type: biochemical
Conditions: N-terminally GST-tagged human full length recombinant Mps-1; 10 μM ATP; 1 μM biotinylated peptide substrate; read-out: Mps1 IC50
Experimental: The human kinase Mps-1 phosphorylates a biotinylated substrate peptide. Detection of the phosphorylated product is achieved by time-resolved fluorescence resonance energy transfer (TR-FRET) from Europium-labelled anti-phospho-Serine/Threonine antibody as donor to streptavidin labelled with cross-linked allophycocyanin (SA-XLent) as acceptor. Compounds are tested for their inhibition of the kinase activity.
N-terminally GST-tagged human full length recombinant Mps-1 kinase (purchased from Invitrogen, Karslruhe, Germany, cat. no PV4071) was used. As substrate for the kinase reaction a biotinylated peptide of the amino-acid sequence […] (C-terminus in amide form, purchased from Biosynthan GmbH, Berlin) was used.
The concentration of Mps-1 in the assay was adjusted to the activity of the enzyme lot and was chosen appropriate to have the assay in the linear range, typical enzyme concentrations were in the range of about 1 nM (final conc. in the 5 μl assay volume).
The resulting mixture was incubated 1 h at 22° C. to allow the binding of the phosphorylated peptide to the anti-phospho(Ser/Thr)-Europium-antibody. Subsequently the amount of phosphorylated substrate was evaluated by measurement of the resonance energy transfer from the Europium-labelled anti-phospho(Ser/Thr) antibody to the Streptavidin-XLent.

human kinase Mps-1, sequence (P33981 whole entry): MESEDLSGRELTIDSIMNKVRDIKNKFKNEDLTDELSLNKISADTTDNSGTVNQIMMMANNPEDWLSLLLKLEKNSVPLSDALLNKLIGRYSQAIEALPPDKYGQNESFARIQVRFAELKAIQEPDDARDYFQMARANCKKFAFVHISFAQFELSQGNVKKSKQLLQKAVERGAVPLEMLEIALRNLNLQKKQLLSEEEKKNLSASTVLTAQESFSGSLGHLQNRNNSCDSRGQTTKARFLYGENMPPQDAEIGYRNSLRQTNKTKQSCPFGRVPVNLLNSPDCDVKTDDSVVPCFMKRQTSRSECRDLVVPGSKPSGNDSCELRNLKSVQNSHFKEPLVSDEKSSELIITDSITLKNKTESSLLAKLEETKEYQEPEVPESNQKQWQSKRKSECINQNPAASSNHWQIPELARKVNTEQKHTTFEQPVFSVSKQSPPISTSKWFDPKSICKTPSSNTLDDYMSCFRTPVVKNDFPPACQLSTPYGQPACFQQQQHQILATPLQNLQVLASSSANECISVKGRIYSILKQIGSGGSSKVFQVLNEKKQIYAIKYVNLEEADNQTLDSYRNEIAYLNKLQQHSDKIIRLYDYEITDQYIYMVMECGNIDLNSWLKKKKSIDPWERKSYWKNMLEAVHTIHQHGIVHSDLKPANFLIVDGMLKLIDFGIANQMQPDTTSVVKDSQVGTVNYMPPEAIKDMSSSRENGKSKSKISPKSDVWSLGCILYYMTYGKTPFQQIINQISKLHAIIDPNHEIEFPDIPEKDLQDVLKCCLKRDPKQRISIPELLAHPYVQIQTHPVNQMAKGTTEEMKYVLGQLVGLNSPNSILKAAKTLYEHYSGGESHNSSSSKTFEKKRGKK

SMILES	IC50
Cc1cc(-n2cnc3c(NCCC(F)(F)F)cc(Oc4cccc(OC(F)F)c4)cc32)ccc1C(=O)NC1CC1 [Example 62, N-cyclopropyl-4-{6-[3-(difluoromethoxy)phenoxy]-4-[(3,3,3-trifluoropropyl)amino]-1H-benzimidazol-1-yl}-2-methylbenzamide]	3.2 nM
COc1ccccc1Nc1cc(NCCC(F)(F)F)c2ncn(-c3ccc(C(=O)NC4CC4)c(C)c3)c2c1 [Example 63, N-cyclopropyl-4-{6-[(2-methoxyphenyl)amino]-4-[(3,3,3-trifluoropropyl)amino]-1H-benzimidazol-1-yl}-2-methylbenzamide]	18.9 nM
Cc1cc(-n2cnc3c(NCCC(F)(F)F)cc(Oc4cccc(S(C)(=O)=O)c4)cc32)ccc1C(=O)NC1CC1 [Example 64, N-cyclopropyl-2-methyl-4-{6-[3-(methylsulfonyl)phenoxy]-4-[(3,3,3-trifluoropropyl)amino]-1H-benzimidazol-1-yl}benzamide]	2.6 nM
COc1cccc(Nc2cc(NCCC(F)(F)F)c3ncn(-c4ccc(C(=O)NC5CC5)c(C)c4)c3c2)c1C [Example 65, N-cyclopropyl-4-{6-[(3-methoxy-2-methylphenyl)amino]-4-[(3,3,3-trifluoropropyl)amino]-1H-benzimidazol-1-yl}-2-methylbenzamide]	2.8 nM
CCNC(=O)c1ccc(-n2cnc3c(NCCC(F)(F)F)cc(Oc4cccc(F)c4F)cc32)cc1C [Example 66, 4-{6-(2,3-difluorophenoxy)-4-[(3,3,3-trifluoropropyl)amino]-1H-benzimidazol-1-yl}-N-ethyl-2-methylbenzamide]	2.1 nM
CNC(=O)c1ccc(-n2cnc3c(NCCC(F)(F)F)cc(Oc4cccc(F)c4F)cc32)cc1C [Example 67, 4-{6-(2,3-difluorophenoxy)-4-[(3,3,3-trifluoropropyl)amino]-1H-benzimidazol-1-yl}-N,2-dimethylbenzamide]	1 nM
CNC(=O)c1ccc(-n2cnc3c(NCCC(F)(F)F)cc(Oc4cccc(OC)c4)cc32)cc1C [Example 68, 4-{6-(3-methoxyphenoxy)-4-[(3,3,3-trifluoropropyl)amino]-1H-benzimidazol-1-yl}-N, 2-dimethylbenzamide]	8.8 nM
CCNC(=O)c1ccc(-n2cnc3c(NCCC(F)(F)F)cc(Oc4cccc(OC)c4)cc32)cc1C [Example 69, N-ethyl-4-{6-(3-methoxyphenoxy)-4-[(3,3,3-trifluoropropyl)amino]-1H-benzimidazol-1-yl}-2-methylbenzamide]	25.9 nM
COc1cccc(Oc2cc(NCCC(F)(F)F)c3ncn(-c4ccc(C(=O)NC5CC5)c(C)c4)c3c2)c1 [Example 70, N-cyclopropyl-4-{6-(3-methoxyphenoxy)-4-[(3,3,3-trifluoropropyl)amino]-1H-benzimidazol-1-yl}-2-methylbenzamide]	2 nM
CCNC(=O)c1ccc(-n2cnc3c(NCCC(F)(F)F)cc(Oc4cccc(F)c4OC)cc32)cc1C [Example 71, N-ethyl-4-{6-(3-fluoro-2-methoxyphenoxy)-4-[(3,3,3-trifluoropropyl)amino]-1H-benzimidazol-1-yl}-2-methylbenzamide]	28.5 nM
CNC(=O)c1ccc(-n2cnc3c(NCCC(F)(F)F)cc(Oc4cccc(F)c4OC)cc32)cc1C [Example 72, 4-{6-(3-fluoro-2-methoxyphenoxy)-4-[(3,3,3-trifluoropropyl)amino]-1H-benzimidazol-1-yl}-N,2-dimethylbenzamide]	33 nM
COc1cc(C#N)ccc1Oc1cc(NCCC(F)(F)F)c2ncn(-c3ccc(C(=O)NC4CC4)c(C)c3)c2c1 [Example 73, 4-{6-(4-cyano-2-methoxyphenoxy)-4-[(3,3,3-trifluoropropyl)amino]-1H-benzimidazol-1-yl}-N-cyclopropyl-2-methylbenzamide]	52.2 nM
Cc1cc(-n2cnc3c(NCCC(F)(F)F)cc(Oc4ccc(S(C)(=O)=O)cc4)cc32)ccc1C(=O)NC1CC1 [Example 74, N-cyclopropyl-2-methyl-4-{6-[4-(methylsulfonyl)phenoxy]-4-[(3,3,3-trifluoropropyl)amino]-1H-benzimidazol-1-yl}benzamide]	6.4 nM
Cc1cc(-n2cnc3c(NCCC(F)(F)F)cc(Oc4ccc(-c5ncco5)cc4)cc32)ccc1C(=O)NC1CC1 [Example 75, N-cyclopropyl-2-methyl-4-{6-[4-(1,3-oxazol-2-yl)phenoxy]-4-[(3,3,3-trifluoropropyl)amino]-1H-benzimidazol-1-yl}benzamide]	21.9 nM
Cc1cc(-n2cnc3c(NCCC(F)(F)F)cc(Oc4ccc(F)c(C(F)(F)F)c4)cc32)ccc1C(=O)NC1CC1 [Example 76, N-cyclopropyl-4-{6-[4-fluoro-3-(trifluoromethyl)phenoxy]-4-[(3,3,3-trifluoropropyl)amino]-1H-benzimidazol-1-yl}-2-methylbenzamide]	7.2 nM
Cc1cc(-n2cnc3c(NCCC(F)(F)F)cc(Oc4cccc(C#N)c4)cc32)ccc1C(=O)NC1CC1 [Example 77, 4-{6-(3-cyanophenoxy)-4-[(3,3,3-trifluoropropyl)amino]-1H-benzimidazol-1-yl}-N-cyclopropyl-2-methylbenzamide]	1 nM
Cc1cc(-n2cnc3c(NCCC(F)(F)F)cc(Oc4ccc(-n5cncn5)cc4)cc32)ccc1C(=O)NC1CC1 [Example 78, N-cyclopropyl-2-methyl-4-{6-[4-(1H-1,2,4-triazol-1-yl)phenoxy]-4-[(3,3,3-trifluoropropyl)amino]-1H-benzimidazol-1-yl}benzamide]	11 nM
Cc1cc(-n2cnc3c(NCCC(F)(F)F)cc(Oc4cccc(C(=O)NC5CC5)c4)cc32)ccc1C(=O)NC1CC1 [Example 79, N-cyclopropyl-4-{6-[3-(cyclopropylcarbamoyl)phenoxy]-4-[(3,3,3-trifluoropropyl)amino]-1H-benzimidazol-1-yl}-2-methylbenzamide]	3.9 nM
Cc1cc(-n2cnc3c(NCCC(F)(F)F)cc(Nc4ccccc4O)cc32)ccc1C(=O)NC1CC1 [Example 82, N-cyclopropyl-4-{6-[(2-hydroxyphenyl)amino]-4-[(3,3,3-trifluoropropyl)amino]-1H-benzimidazol-1-yl}-2-methylbenzamide]	3.9 nM
Cc1cc(-n2cnc3c(NCCC(F)(F)F)cc(Oc4ccc(O)c(F)c4)cc32)ccc1C(=O)NC1CC1 [Example 83, N-cyclopropyl-4-{6-(3-fluoro-4-hydroxyphenoxy)-4-[(3,3,3-trifluoropropyl)amino]-1H-benzimidazol-1-yl}-2-methylbenzamide]	0.7 nM
CNC(=O)c1ccc(-n2cnc3c(NCC4CCOCC4)cc(Oc4cccc(F)c4F)cc32)cc1C [Example 84, 4-{6-(2,3-difluorophenoxy)-4-[(tetrahydro-2H-pyran-4-ylmethyl)amino]-1H-benzimidazol-1-yl}-N,2-dimethylbenzamide]	3.4 nM
CCNC(=O)c1ccc(-n2cnc3c(NCC4CCOCC4)cc(Oc4cccc(F)c4F)cc32)cc1C [Example 85, 4-{6-(2,3-Difluorophenoxy)-4-[(tetrahydro-2H-pyran-4-ylmethyl)amino]-1H-benzimidazol-1-yl}-N-ethyl-2-methylbenzamide]	3.3 nM
CNC(=O)c1ccc(-n2cnc3c(NCC4CCOCC4)cc(Oc4ccc(OC)cc4F)cc32)cc1C [Example 86, 4-{6-(2-fluoro-4-methoxyphenoxy)-4-[(tetrahydro-2H-pyran-4-ylmethyl)amino]-1H-benzimidazol-1-yl}-N,2-dimethylbenzamide]	7 nM
CCNC(=O)c1ccc(-n2cnc3c(NCC4CCOCC4)cc(Oc4ccc(OC)cc4F)cc32)cc1C [Example 87, N-ethyl-4-{6-(2-fluoro-4-methoxyphenoxy)-4-[(tetrahydro-2H-pyran-4-ylmethyl)amino]-1H-benzimidazol-1-yl}-2-methylbenzamide]	11.4 nM
CNC(=O)c1ccc(-n2cnc3c(NCCC(F)(F)F)cc(Oc4ccc(OC)cc4F)cc32)cc1C [Example 88, 4-{6-(2-fluoro-4-methoxyphenoxy)-4-[(3,3,3-trifluoropropyl)amino]-1H-benzimidazol-1-yl}-N,2-dimethylbenzamide]	6.7 nM
CCNC(=O)c1ccc(-n2cnc3c(NCCC(F)(F)F)cc(Oc4ccc(OC)cc4F)cc32)cc1C [Example 89, N-ethyl-4-{6-(2-fluoro-4-methoxyphenoxy)-4-[(3,3,3-trifluoropropyl)amino]-1H-benzimidazol-1-yl}-2-methylbenzamide]	10.8 nM
Cc1cc(-n2cnc3c(NCCC(F)(F)F)cc(Oc4ccc(O)cc4F)cc32)ccc1C(=O)NC1CC1 [Example 90, N-cyclopropyl-4-{6-(2-fluoro-4-hydroxyphenoxy)-4-[(3,3,3-trifluoropropyl)amino]-1H-benzimidazol-1-yl}-2-methylbenzamide]	1.1 nM
Cc1cc(-n2cnc3c(NCCC(F)(F)F)cc(Oc4cccc(F)c4O)cc32)ccc1C(=O)NC1CC1 [Example 91, N-cyclopropyl-4-{6-(3-fluoro-2-hydroxyphenoxy)-4-[(3,3,3-trifluoropropyl)amino]-1H-benzimidazol-1-yl}-2-methylbenzamide]	0.4 nM
CNC(=O)c1ccc(-n2cnc3c(NCCC(F)(F)F)cc(Oc4cccc(F)c4O)cc32)cc1C [Example 92, 4-{6-(3-fluoro-2-hydroxyphenoxy)-4-[(3,3,3-trifluoropropyl)amino]-1H-benzimidazol-1-yl}-N,2-dimethylbenzamide]	3 nM
